pIC50: −log10 of the molar value. Where two headings read alike, the source gives them in different places.
Legend:
[1] = tested on: HepG2 cells; experiment: HepG2 cytotoxicity assay; details: for Pb ODA (this manuscript) HepG2 cytoxicity: HepG2 cytotoxicity listed with the Pb ODA data set (this manuscript); for pIC50: read-out: HepG2 cytotoxicity assay IC50, dose response confirmation; for Unified cytotox: unified HepG2 value across the three screens
Protocol: Briefly, HepG2 cells were seeded onto compound-treated 384 well plates at a density of 2,500 cells per well in Minimal Essential Medium (MEM) plus 10% fetal bovine serum and 1% non-essential amino acids solution (NEAA). Cells were incubated with test compounds or 50 μM doxorubicin (positive) and DSMO (negative) controls at 37°C for 48 h in a humidified 5% CO2 atmosphere. […] Cell viability was then measured in a fluorescent plate reader and percent inhibition calculated with respect to positive and negative controls.

[2] = tested on: 3D7-strain P. falciparum asexual parasites; experiment: P. falciparum asexual growth inhibition assay (Pf GIA); type: cell-based, Plasmodium falciparum; details: dose response confirmation; read-out: Pf asexual growth inhibition assays IC50
Protocol: The asexual activity of active compounds was tested in dose response with parasite lactate dehydrogenase (LDH) activity used as a readout of parasite viability as described in [Gamo et al. (2010)]. Briefly, 3D7-strain P. falciparum asexual parasites were diluted to 0.25% parasitemia, 2% hematocrit in culture medium composed of RPMI medium with 25 mM HEPES, 2% D-sucrose, 0.3% L-glutamine, 150 μM hypoxanthine plus 5% albumax. 25 μl of parasite inoculum was then dispensed into each well of a 384 well plate containing test compounds and positive (50 μM chloroquine) and negative (DMSO) controls. Plates were incubated for 72 h at 37°C in a 5% CO2, 5%O2, 90% N2 environment before being frozen at −70°C. Plates were then thawed and 70 μl of reaction mix (143 mM sodium L-lactate, 143 mM 3-acetyl pyridine adenine dinucleotide, […] Nitro Blue tetrazolium chloride, […] diaphorase (2.83 U/ml), 0.7% Tween 20, 100 mM Tris–HCl pH 8.0) was added to each well using a Multidrop Combi automated dispenser. Plates were shaken to mix and then absorbance at 650 nm was measured after 10 min incubation at room temperature. Percent inhibition of asexual growth was then calculated with respect to positive and negative controls. Data presented is the mean of three independent biological replicates.

[3] = tested on: P. berghei ookinete development; details: for % inhibition, Replicate A / % inhibition, Replicate B: primary screen at 1 μM
[4] = read-out: Pb Ookinete development assay IC50, dose response confirmation
[5] = read-out: Pb ODA IC50, this manuscript
[6] = read-out: Pb ODA (this manuscript) IC50, P. berghei ookinete development assay, this manuscript

Row | SMILES | Pb ODA (this manuscript) HepG2 cytoxicity [1] [µM] | pIC50 [1] | pIC50 [2] | Is compound selective in assay? Pb ODA active? [3] | % inhibition, Replicate A [3] [%] | % inhibition, Replicate B [3] [%] | pIC50 [3, 4] | Unified cytotox [1] [µM] | Is compound selective in assay? Pb ODA active? ([3]; 1: YES, 0: NO) | pIC50 [3, 5] | pIC50 [3, 6]
1 | COc1ccc2nc3cc(Cl)ccc3c(NCCCO)c2c1 [TCMDC-124144] | 7.08 | 5.15 | 6.68 | 0 (key: 1: YES; 0: NO) | 19.58 | 67.10 | 5.89 | – | – | – | –
2 | CC(C)CN1CCN(c2nc(C#N)c3c(c2C(=S)NC2CCCCC2)CC(C)(C)OC3)CC1 [TCMDC-124173] | – | 4.00 | 6.38 | – | 37.56 | 54.94 | 5.31 | 100.00 | 1 (1: YES) | 5.31 | –
3 | COc1ccc(C=NNc2nc(O)cc(-c3ccccc3)n2)cc1OC [TCMDC-124217] | – | 4.24 | 6.20 | – | 58.99 | 66.09 | 6.30 | 58.21 | 1 (1: YES) | 6.30 | –
4 | COc1cc(OC)nc(C(Sc2ccc(NC(=O)c3cccs3)cc2)c2ccccc2)n1 (stereo not shown) [TCMDC-124257] | – | 4.00 | 6.74 | – | 29.98 | 55.99 | 6.01 | 100.00 | 1 (1: YES) | 6.01 | –
5 | COc1ccc2nc3cc(Cl)ccc3c(NCCO)c2c1.Cl [TCMDC-124272] | 15.67 | 4.80 | 6.39 | 1 (key: 1: YES; 0: NO) | 66.85 | 79.62 | 6.07 | – | – | – | 6.08
6 | Cc1ccc2[nH]c(C)c(Br)c(=O)c2c1 [TCMDC-124347] | – | 4.00 | 5.42 | – | 68.86 | 49.90 | 5.61 | 100.00 | 1 (1: YES) | 5.61 | –
7 | CC(=O)Nc1ccc(Nc2c3ccccc3nc3ccccc23)cc1 [TCMDC-124356] | – | 4.85 | 5.96 | – | 62.81 | 63.52 | 6.22 | 14.13 | 1 (1: YES) | 6.22 | –
8 | CCn1c(C)cc(C=C2SC(=Nc3ccccc3)NC2=O)c1C [TCMDC-124456] | – | 4.01 | 5.77 | – | 41.94 | 67.52 | 6.00 | 97.27 | 1 (1: YES) | 6.00 | –
9 | COc1ccc(C=C2SC(=N)N(c3ccccc3OC)C2=O)cc1 [TCMDC-124486] | – | 4.61 | 6.46 | – | 113.35 | 91.87 | 6.17 | 24.55 | 1 (1: YES) | 6.17 | –
10 | Cc1cc2nc(/N=C(\N)NC(=O)NC3CCCCC3)nc(C)c2cc1C [TCMDC-124528] | 8.51 | 5.07 | 6.40 | 1 (key: 1: YES; 0: NO) | 53.37 | 63.38 | 6.07 | – | – | – | 6.07
11 | CCc1cc2c(Sc3nc4ccccc4[nH]3)ncnc2s1 [TCMDC-124553] | – | 4.00 | 5.76 | – | 56.26 | 84.90 | 6.00 | 100.00 | 1 (1: YES) | 6.00 | –
12 | Cc1ccc2nc(/N=C(\N)NC(=O)NC3CCCCC3)nc(C)c2c1 [TCMDC-124557] | 57.54 | 4.24 | 5.33 | 1 (key: 1: YES; 0: NO) | 85.28 | 75.31 | 5.76 | – | – | – | 5.76
13 | COc1cccc(C=Cc2nc(=O)c3ccccc3o2)c1OC [TCMDC-124577] | 100.00 | 4.00 | 6.84 | 1 (key: 1: YES; 0: NO) | 107.06 | 83.20 | 7.31 | – | – | – | 7.30
14 | c1ccc(CCNc2ncnc3c2[nH]c2ccccc23)cc1 [TCMDC-124578] | – | 4.98 | 6.57 | – | 104.22 | 87.03 | 6.43 | 10.59 | 1 (1: YES) | 6.43 | –
15 | O=C(c1cc(-c2ccco2)[nH]n1)N1CCN(S(=O)(=O)c2ccc(Cl)cc2)CC1 [TCMDC-124698] | 100.00 | 4.00 | 6.25 | 1 (key: 1: YES; 0: NO) | 67.42 | 51.92 | 5.95 | – | – | – | 5.95
16 | O=C(c1cc(-c2ccco2)[nH]n1)N1CCN(S(=O)(=O)c2ccc(Br)cc2)CC1 [TCMDC-124699] | 100.00 | 4.00 | 6.75 | 1 (key: 1: YES; 0: NO) | 66.14 | 59.38 | 5.99 | – | – | – | –
17 | O=C(c1cc(-c2cccs2)[nH]n1)N1CCN(S(=O)(=O)c2ccc(Cl)cc2)CC1 [TCMDC-124702] | 42.17 | 4.37 | 7.57 | 0 (key: 1: YES; 0: NO) | 58.15 | 68.92 | 5.36 | – | – | – | 5.36
18 | CCn1c(CN2CCC(C)CC2)nc2cc(NC(=O)c3cccs3)ccc21 [TCMDC-124730] | – | 4.12 | 6.74 | – | 78.95 | 101.97 | 6.46 | 75.86 | 1 (1: YES) | – | –
19 | COc1cc(OC)c(NC(=O)C2c3ccccc3C(=O)N(CC(C)C)C2c2cccs2)cc1Cl (stereo not shown) [TCMDC-124760] | – | 4.00 | 6.97 | – | 44.76 | 67.88 | 5.07 | 100.00 | 1 (1: YES) | 5.06 | –
20 | COc1cccc(CC(=O)N2CCC(n3c(C)nc4ccc(F)cc43)CC2)c1 [TCMDC-124792] | – | 4.00 | 6.68 | – | 59.80 | 82.85 | 6.10 | 100.00 | 1 (1: YES) | 6.10 | –

— PMC6753678, “Fueling Open Innovation for Malaria Transmission-Blocking Drugs: Hundreds of Molecules Targeting Early Parasite Mosquito Stages” (Frontiers in Microbiology, 2019)
